Measured values from patent publication US20140187426A1, “CROP ENHANCEMENT” (SYNGENTA PARTICIPATIONS AG, priority 2011, published 2014).

Tests used:
Assay type in all cases: in vivo
[1] = tested on: summer oil seed rape variety Jumbo; assay: Glasshouse trial, leaf chlorophyll content (Dualex), variety Jumbo
Text: (§1) A glasshouse trial was setup to assess growth effects of cis-jasmone on summer oil seed rape varieties Jumbo and Senator. Each treatment was applied as a spray to the leaves of the plant at plant growth stage 13 (3 leaves). Three replicates of 2 plants were sowed in pots in the greenhouse. Assessments of chlorophyll content of the leaves were made using the Dualex technique 25 days after application; the results are expressed as Dualex units of Chlorophyll in Table 8.

[2] = tested on: summer oil seed rape variety Senator; assay: Glasshouse trial, leaf chlorophyll content (Dualex), variety Senator
Text: as §1

[3] = tested on: creeping bentgrass; assay: Turf colour assessment, golf course green trial; details: for Plant Colour 14DAA (2) / Plant Colour 14 DAA (3) / Plant Colour 7AA (2): scale 1 (poor) to 10 (good), 3 apps - 4 week interval; for Plant Colour 14DAA (2): 14 days after application 2; for Plant Colour 14 DAA (3): 14 days after application 3; for Plant Colour 7AA (2): after application 2
Text: A trial was setup to assess crop (turf) enhancement effects of cis-jasmone on a creeping bentgrass golf course green. Each treatment was applied as a spray to the turfgrass. Assessments of turf colour and quality were made at several intervals after application; the results are expressed on a scale of 1 (poor) to 10 (good) in Table 5.

[4] = tested on: winter rye (Reknit); assay: Glasshouse trial, lodging of winter rye after leaf spray; details: for % lodging 30 DAA Winter rye: leaf spray at growth stage 30, 30 days after application
Text: (§2) A glasshouse trial was setup to assess growth effects of cis-jasmone on summer barley (Pasadena) and winter rye (Reknit).
(§3) Each treatment was applied as a spray to the leaves of the plant at plant growth stage 30 (start of stem elongation). Assessments of lodging were made 30 days after application; the results are expressed as percentage lodging in Table 2.

[5] = tested on: hybrid bermudagrass; assay: Turf growth (clipping weights), golf course fairway trial; details: for Clipping wt (g) 32 DAA (1): 3 apps - 4 week interval, 32 days after application 1
Text: A trial was setup to assess crop enhancement effects of cis-jasmone on a hybrid bermudagrass golf course […]. Each treatment was applied as a spray to the turfgrass. Assessments of turf growth (clipping weights in grams) were made at several intervals after application.

[6] = tested on: summer barley (Pasadena); assay: Glasshouse trial, lodging of summer barley after leaf spray; details: for % lodging 30 DAA Summary barley: leaf spray at growth stage 30, 30 days after application
Text: as §2, §3

[7] = tested on: Poa annua; assay: Turf colour assessment, golf course fairway trial
Text: (§4) A trial was setup to assess crop (turf) enhancement effects of cis-jasmone on Poa annua in a golf course […]. Each treatment was applied as a spray to the turfgrass. Assessments of turf colour and quality were made at several intervals after application; the results are expressed on a scale of 1 (poor) to 10 (good).

[8] = tested on: Poa annua; assay: Turf quality assessment, golf course fairway trial
Text: as §4

[9] = during the entire study, versus untreated check
[10] = scale 1 (poor) to 10 (good), 50 g ai/ha, 4 applications on a 4 week schedule, 9-Jul
[11] = scale 1 (poor) to 10 (good), 50 g ai/ha, 4 applications on a 4 week schedule, 16-Jul
[12] = scale 1 (poor) to 10 (good), 50 g ai/ha, 4 applications on a 4 week schedule, 17-Jun

## CC/C=C\CC1=C(C)CCC1=O [Cis-jasmone (CJN), cis-jasmone]
[1]
  effect on chlorophyll content (in words): increased chlorophyll content
[2]
  effect on chlorophyll content (in words): not
[3]; [9]
  effect on turf colour (in words): significantly increased turf colour
[3]; 50 g ai/ha
  Plant Colour 14DAA (2): 5.40 e
  Plant Colour 14 DAA (3): 6.00 c
  Plant Colour 7AA (2): 5.6
[3]; 100 g ai/ha
  Plant Colour 14DAA (2): 6.00 c
  Plant Colour 14 DAA (3): 6.00 c
  Plant Colour 7AA (2): 5.7
[3]; 150 g ai/ha
  Plant Colour 14DAA (2): 6.00 c
  Plant Colour 14 DAA (3): 6.00 c
  Plant Colour 7AA (2): 6.08
[4]; 150 g AI/ha
  % lodging 30 DAA Winter rye: 30.0%
[4]; 300 g AI/ha
  % lodging 30 DAA Winter rye: 23.3%
[4]; winter rye, versus untreated check
  effect on lodging (in words): significantly increases lodging
[5]; 50 g ai/ha
  Clipping wt (g) 32 DAA (1): 37 ab g
[5]; 100 g ai/ha
  Clipping wt (g) 32 DAA (1): 45 a g
[5]; 150 g ai/ha
  Clipping wt (g) 32 DAA (1): 25 c g
[5]; early in the trial, versus untreated check
  effect on clipping weights (in words): significantly increased clipping weights
[6]; 150 g AI/ha
  % lodging 30 DAA Summary barley: 70.0%
[6]; 300 g AI/ha
  % lodging 30 DAA Summary barley: 60.0%
[6]; summer barley
  initial growth (in words): faster initial growth
[6]; summer barley, versus untreated check
  effect on lodging (in words): significantly increases lodging
[7]; [9]
  effect on turf colour (in words): significantly increased turf colour
[7]; scale 1 (poor) to 10 (good), 50 g ai/ha, 4 applications on a 4 week schedule, 4-June
  Turf colour 4-June: 7.80 b
[7]; [10]
  Turf colour 9-Jul: 8.2 a
[7]; scale 1 (poor) to 10 (good), 50 g ai/ha, 4 applications on a 4 week schedule, 10-June
  Turf colour 10-June: 8.16 a
[7]; scale 1 (poor) to 10 (good), 50 g ai/ha, 4 applications on a 4 week schedule, 14-May
  Turf colour 14-May: 5.8 b
[7]; [11]
  Turf colour 16-Jul: 7.96 a
[7]; [12]
  Turf colour 17-Jun: 7.80 a
[7]; scale 1 (poor) to 10 (good), 50 g ai/ha, 4 applications on a 4 week schedule, 21-May
  Turf colour 21-May: 8.08 b
[7]; scale 1 (poor) to 10 (good), 50 g ai/ha, 4 applications on a 4 week schedule, 28-May
  Turf colour 28-May: 6.00 b
[8]; [9]
  effect on turf quality (in words): significantly increased turf quality
[8]; scale 1 (poor) to 10 (good), 50 g ai/ha, 4 applications on a 4 week schedule, 3-Jul
  Turf quality 3-Jul: 8.46 a
[8]; [10]
  Turf quality 9-Jul: 8.42 a
[8]; scale 1 (poor) to 10 (good), 50 g ai/ha, 4 applications on a 4 week schedule, 10-Jun
  Turf quality 10-Jun: 8.2 a
[8]; [11]
  Turf quality 16-Jul: 8.1 a
[8]; [12]
  Turf quality 17-Jun: 8.8 a
[8]; scale 1 (poor) to 10 (good), 50 g ai/ha, 4 applications on a 4 week schedule, 23-Jul
  Turf quality 23-Jul: 8.18 a
[8]; scale 1 (poor) to 10 (good), 50 g ai/ha, 4 applications on a 4 week schedule, 24-Jun
  Turf quality 24-Jun: 8.74 a
[8]; scale 1 (poor) to 10 (good), 50 g ai/ha, 4 applications on a 4 week schedule, 31-Jul
  Turf quality 31-Jul: 7.96 a
